Results: US10703745B2, “Acyl phosphonamidates and acyl benzylamines that are Bcl family antagonists for use in clinical management of conditions caused or mediated by senescent cells and for treating cancer” (Unity Biotechnology, Inc., priority 2018, dated 2020)

Legend:
[1] = tested on: 3MR or INK-ATTAC mice exposed to cigarette smoke; experiment: Cigarette smoke COPD model, oxygen saturation by pulse oximeter; format: in vivo, mouse; settings: after two months of cigarette smoke exposure, compared with untreated controls
Source text: The mice used in this study include the 3MR strain, described in US 2017/0027139 A1 and in Demaria et al., Dev Cell. 2014 Dec. 22; 31(6): 722-733. The 3MR mouse has a transgene encoding thymidine kinase that converts the prodrug ganciclovir (GCV) to a compound that is lethal to cells. The enzyme in the transgene is placed under control of the p16 promoter, which causes it to be specifically expressed in senescent cells. Treatment of the mice with GCV eliminates senescent cells.
Other mice used in this study include the INK-ATTAC strain, described in US 2015/0296755 A1 and in Baker et al., Nature 2011 Nov. 2; 479(7372):232-236. The INK-ATTAC mouse has a transgene encoding switchable caspase 8 under control of the p16 promoter. The caspase 8 can be activated by treating the mice with the switch compound AP20187, whereupon the caspase 8 directly induces apoptosis in senescent cells, eliminating them from the mouse.
To conduct the experiment, six-week-old 3MR (n=35) or INK-ATTAC (n=35) mice were chronically exposed to cigarette smoke generated from a Teague TE-10 system, an automatically-controlled cigarette smoking machine that produces a combination of side-stream and mainstream cigarette smoke in a chamber, which is transported to a collecting and mixing chamber where varying amounts of air is mixed with the smoke mixture. The COPD protocol was adapted from the COPD core facility at Johns Hopkins University (Rangasamy et al., 2004, J. Clin. Invest. 114:1248-1259; Yao et al., 2012, J. Clin. Invest. 122:2032-2045).
Mice received a total of 6 hours of cigarette smoke exposure per day, 5 days a week for 6 months. Each lighted cigarette (3R4F research cigarettes containing 10.9 mg of total particulate matter (TPM), 9.4 mg of tar, and 0.726 mg of nicotine, and 11.9 mg carbon monoxide per cigarette [University of Kentucky, Lexington, Ky.]) was puffed for 2 seconds and once every minute for a total of 8 puffs, with the flow rate of 1.05 L/min, to provide a standard puff of 35 cm3. The smoke machine was adjusted to produce a mixture of side stream smoke (89%) and mainstream smoke (11%) by smoldering 2 cigarettes at one time. The smoke chamber atmosphere was monitored for total suspended particulates (80-120 mg/m3) and carbon monoxide (350 ppm). […]
After two months of cigarette smoke (CS) exposure, lung function was assessed by monitoring oxygen saturation using the MouseSTAT PhysioSuite™ pulse oximeter (Kent Scientific). […] Mice were monitored for 30 seconds and the average peripheral capillary oxygen saturation (SpO2) measurement over this duration was calculated.

[2] = tested on: primary cells from patients with B-cell malignancies; settings: in vitro; cited from earlier work
cancer cells = settings: cited from earlier work
[3] = tested on: C57BL/6J mice with surgery-induced osteoarthritis; experiment: Osteoarthritis model (ACL surgery): qRT-PCR of senescence markers and SASP factors in operated joints; format: in vivo, mouse; settings: 5.8 μg per operated knee intra-articular, 4 weeks post-surgery
Experimental: (§1) The model was implemented as follows. C57BL/6J mice underwent surgery to cut the anterior cruciate ligament of one rear limb to induce osteoarthritis in the joint of that limb. During week 3 and week 4 post-surgery, the mice were treated with 5.8 μg of Nutlin-3A (n=7) per operated knee by intra-articular injection, q.o.d. for 2 weeks. At the end of 4 weeks post-surgery, joints of the mice were monitored for presence of senescent cells, assessed for function, monitored for markers of inflammation, and underwent histological assessment.
Two control groups of mice were included in the studies performed: one group comprising C57BL/6J or 3MR mice that had undergone a sham surgery (n=3) (i.e., surgical procedures followed except for cutting the ACL) and intra-articular injections of vehicle parallel to the GCV (ganciclovir) treated group; and one group comprising C57BL/6J or 3MR mice that had undergone an ACL surgery and received intra-articular injections of vehicle (n=5) parallel to the GCV-treated group. RNA from the operated joints of mice from the Nutlin-3A treated mice was analyzed for expression of SASP factors (mmp3, IL-6) and senescence markers (p16). qRT-PCR was performed to detect mRNA levels.

[4] = tested on: C57BL/6J mice with surgery-induced osteoarthritis; experiment: Osteoarthritis model: weight bearing test of hind limbs; format: in vivo, mouse; settings: 4 weeks post-surgery
Experimental: as §1
Function of the limbs was assessed 4 weeks post-surgery by a weight bearing test to determine which leg the mice favored. The mice were allowed to acclimate to the chamber on at least three occasions prior to taking measurements. Mice were maneuvered inside the chamber to stand with one hind paw on each scale. The weight that was placed on each hind limb was measured over a three second period. At least three separate measurements were made for each animal at each time point. The results were expressed as the percentage of the weight placed on the operated limb versus the contralateral unoperated limb.

[5] = tested on: C57BL/6J mice with surgery-induced osteoarthritis; experiment: Osteoarthritis model: histopathology of joint tissue; format: in vivo, mouse; settings: ACL surgery, 4 weeks post-surgery
Experimental: as §1

[6] = tested on: LDLR-/- mice fed a high fat diet; experiment: Atherosclerosis model: RT-PCR of SASP factors and senescent cell markers in aortic arch; format: in vivo, mouse; settings: 25 mg/kg intraperitoneally, HFD
Experimental: Two groups of LDLR−/− mice (10 weeks) are fed a high fat diet (HFD) (Harlan Teklad TD.88137) having 42% calories from fat, beginning at Week 0 and throughout the study. Two groups of LDLR−/− mice (10 weeks) are fed normal chow (−HFD). From weeks 0-2, one group of HFD mice and −HFD mice are treated with Nutlin-3A (25 mg/kg, intraperitoneally). One treatment cycle is 14 days treatment, 14 days off. Vehicle is administered to one group of HFD mice and one group of −HFD mice. At week 4 (timepoint 1), one group of mice are sacrificed and to assess presence of senescent cells in the plaques. For the some of the remaining mice, Nutlin-3A and vehicle administration is repeated from weeks 4-6. […]
At the end of timepoint 1, LDLR−/− mice fed a HFD and treated with Nutlin-3A or vehicle were sacrificed (n=3, all groups), and the aortic arches were dissected for RT-PCR analysis of SASP factors and senescent cell markers. Values were normalized to GAPDH and expressed as fold-change versus age-matched, vehicle-treated LDLR−/− mice on a normal diet.
At the end of timepoint 2, LDLR−/− mice fed a HFD and treated with Nutlin-3A or vehicle (n=3 for all groups) were sacrificed, and aortic arches were dissected for RT-PCR analysis of SASP factors and senescent cell markers. Values were normalized to GAPDH and expressed as fold-change versus age-matched, vehicle-treated LDLR−/− mice on a normal diet.

[7] = tested on: LDLR-/- mice fed a high fat diet; experiment: Atherosclerosis model: Sudan IV staining of aortic plaques; format: in vivo, mouse; settings: timepoint 3 (week 12), 25 mg/kg intraperitoneally, HFD
Experimental: (§2) Two groups of LDLR−/− mice (10 weeks) are fed a high fat diet (HFD) (Harlan Teklad TD.88137) having 42% calories from fat, beginning at Week 0 and throughout the study. Two groups of LDLR−/− mice (10 weeks) are fed normal chow (−HFD). From weeks 0-2, one group of HFD mice and −HFD mice are treated with Nutlin-3A (25 mg/kg, intraperitoneally). One treatment cycle is 14 days treatment, 14 days off. Vehicle is administered to one group of HFD mice and one group of −HFD mice. At week 4 (timepoint 1), one group of mice are sacrificed and to assess presence of senescent cells in the plaques. For the some of the remaining mice, Nutlin-3A and vehicle administration is repeated from weeks 4-6. At week 8 (timepoint 2), the mice are sacrificed and to assess presence of senescent cells in the plaques. The remaining mice are treated with Nutlin-3A or vehicle from weeks 8-10. At week 12 (timepoint 3), the mice are sacrificed and to assess the level of plaque and the number of senescent cells in the plaques.
(§3) At the end of timepoint 3, LDLR−/− mice fed a HFD and treated with Nutlin-3A or vehicle (n=3 for all groups) were sacrificed, and aortas were dissected and stained with Sudan IV to detect the presence of lipid. Body composition of the mice was analyzed by MRI, and circulating blood cells were counted by Hemavet™.

[8] = tested on: LDLR-/- mice fed a high fat diet; experiment: Atherosclerosis model: body composition by MRI and circulating blood cell counts; format: in vivo, mouse; settings: timepoint 3
Experimental: as §2, §3

In the case of Nc1nc(O)c2ncn(COC(CO)CO)c2n1 [ganciclovir], the SpO2 levels [1] is reported as “statistically significant increases”.
For CN(C)CC[C@H](CSc1ccccc1)Nc1ccc(S(=O)(=O)NC(=O)c2ccc(N3CCN(Cc4ccccc4-c4ccc(Cl)cc4)CC3)cc2)cc1[N+](=O)[O-] [ABT-737], the “sensitivity of primary cells from patients with B-cell malignancies” value [2] is given as “sensitive”, the “dose-limiting toxicity in human patients” value (cancer cells) is given as “dose-limiting thrombocytopenia” and the “efficacy against cancer cells in human patients” value (cancer cells) is given as “effective against some types of cancer cells”.
For CC[C@H](C(=O)N1CCCC[C@H]1C(=O)O[C@H](CCc1ccc(OC)c(OC)c1)c1cccc(OCC(=O)NCC(CNC(=O)COc2cccc([C@@H](CCc3ccc(OC)c(OC)c3)OC(=O)[C@@H]3CCCCN3C(=O)[C@@H](CC)c3cc(OC)c(OC)c(OC)c3)c2)CN(C)C)c1)c1cc(OC)c(OC)c(OC)c1 [AP2018], the SpO2 levels [1] was “statistically significant increases”.
With COc1ccc(C2=N[C@@H](c3ccc(Cl)cc3)[C@@H](c3ccc(Cl)cc3)N2C(=O)N2CCNC(=O)C2)c(OC(C)C)c1 [Nutlin-3A] the “expression of IL-6 in the tissue” value ([3]; q.o.d. for 2 weeks, mRNA) was “reduced the expression back to below the level of the controls”, the “expression of MMP13 in the tissue” value ([3]; q.o.d. for 2 weeks, mRNA) was “reduced the expression back to below the level of the controls” and the “expression of p16 in the tissue” value ([3]; q.o.d. for 2 weeks, mRNA) was “reduced the expression back to below the level of the controls”. For the same compound, the “senescent cells in the joint” value [3] was “cleared senescent cells from the joint”, the “weight placed on operated limb versus contralateral unoperated limb (favoring of unoperated hind limb)” value [4] was “abrogated this effect” and the “destruction of the proteoglycan layer (histopathology)” value [5] was “completely abrogated this effect”. The SpO2 levels [1] was “statistically significant increases”, the “expression of SASP factors and senescent cell markers MMP3, MMP13, PAI1, p21, IGFBP2, IL-1A, IL-1B in aortic arch” value ([6]; timepoint 1 (week 4), one treatment cycle) was “reduced expression of several SASP factors and senescent cell markers” and the “expression of SASP factors and senescent cell markers in aortic arch” value ([6]; timepoint 2 (week 8), multiple treatment cycles) was “reduced expression of most markers”. For the same compound, the “reduction of surface area covered by plaques in the descending aorta” value [7] was “about 45%”, the body fat composition ([8]; mice fed the high fat diet) was “decreased” and the mass ([8]; mice fed the high fat diet) was “decreased”. The “lymphocyte counts versus vehicle treated mice” value [8] was “equivalent” and the “platelet counts versus vehicle treated mice” value [8] was “equivalent”.
With CC1(C)CCC(c2ccc(Cl)cc2)=C(CN2CCN(c3ccc(C(=O)NS(=O)(=O)c4ccc(N[C@H](CCN5CCOCC5)CSc5ccccc5)c(S(=O)(=O)C(F)(F)F)c4)cc3)CC2)C1 [ABT-263, Navitoclax] the SpO2 levels [1] was “statistically significant increases”.
